Test results taken from the supplement of paper PMC4862054.

How the values were obtained:
Conditions in all cases: incubation time: 72 h
BT-474 [1] = test: normalised viability (% of control), CellTiter-Blue; higher = more viable cells (100 = DMSO, 0 = benzethonium chloride kill control)
Procedure: (§1)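 DSRT, CellTiter-Blue viability, 72 h incubation. Signal is normalised to DMSO and benzethonium chloride controls. Value is the normalised response at dose 1.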

BT-549 [2] = test: as above
Procedure: as §1

CAL-120 [3] = test: as above
Procedure: as §1

CAL-148 [4] = test: as above
Procedure: as §1

CAL-51 [5] = test: as above
Procedure: as §1

CAL-85-1 [6] = test: as above
Procedure: as §1

DU-4475 [7] = test: as above
Procedure: as §1

HCC1143 [8] = test: as above
Procedure: as §1

HCC1599 [9] = test: as above
Procedure: as §1

HCC1937 [10] = test: as above
Procedure: as §1

HDQ-P1 [11] = test: as above
Procedure: as §1

Hs578T [12] = test: as above
Procedure: as §1

MDA-MB-231 [13] = test: as above
Procedure: as §1

MDA-MB-436 [14] = test: as above
Procedure: as §1

MDA-MB-453 [15] = test: as above
Procedure: as §1

MDA-MB-468 [16] = test: as above
Procedure: as §1

MFM-223 [17] = test: as above
Procedure: as §1

SK-BR-3 [18] = test: as above
Procedure: as §1

BT-474 [19] = test: normalised response (% of control), CellTiter-Glo; higher = more viable cells (100 = DMSO, 0 = benzethonium chloride kill control)
Outline: (§2)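 For each plate, 0.1 % DMSO was set to 100 and a positive kill control to 0. Breast cancer cell lines (20 µl suspension) were seeded into 384-well plates already holding compound at 5 concentrations in 10-fold steps over a 10,000-fold range chosen per compound, and incubated for 72 h. CellTox Green fluorescence at 485/520 nm was read before CellTiter-Glo luminescence, which followed 10 min at room temperature. Each value is the normalised signal at one concentration.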

BT-549 [20] = test: as above
Outline: as §2

CAL-120 [21] = test: as above
Outline: as §2

CAL-148 [22] = test: as above
Outline: as §2

CAL-51 [23] = test: as above
Outline: as §2

CAL-85-1 [24] = test: as above
Outline: as §2

DU-4475 [25] = test: as above
Outline: as §2

HCC1143 [26] = test: as above
Outline: as §2

HCC1599 [27] = test: as above
Outline: as §2

HCC1937 [28] = test: as above
Outline: as §2

HDQ-P1 [29] = test: as above
Outline: as §2

Hs578T [30] = test: as above
Outline: as §2

MCF-10A = test: as above
Outline: as §2

MDA-MB-231 [31] = test: as above
Outline: as §2

MDA-MB-436 [32] = test: as above
Outline: as §2

MDA-MB-453 [33] = test: as above
Outline: as §2

MDA-MB-468 [34] = test: as above
Outline: as §2

MFM-223 [35] = test: as above
Outline: as §2

SK-BR-3 [36] = test: as above
Outline: as §2

| Structure (SMILES) | normalised viability (BT-474 [1]) [%] | normalised viability (BT-549 [2]) [%] | normalised viability (CAL-120 [3]) [%] | normalised viability (CAL-148 [4]) [%] | normalised viability (CAL-51 [5]) [%] | normalised viability (CAL-85-1 [6]) [%] | normalised viability (DU-4475 [7]) [%] | normalised viability (HCC1143 [8]) [%] | normalised viability (HCC1599 [9]) [%] | normalised viability (HCC1937 [10]) [%] | normalised viability (HDQ-P1 [11]) [%] | normalised viability (Hs578T [12]) [%] | normalised viability (MDA-MB-231 [13]) [%] | normalised viability (MDA-MB-436 [14]) [%] | normalised viability (MDA-MB-453 [15]) [%] | normalised viability (MDA-MB-468 [16]) [%] | normalised viability (MFM-223 [17]) [%] | normalised viability (SK-BR-3 [18]) [%] | normalised response (BT-474 [19]) [%] | normalised response (BT-549 [20]) [%] | normalised response (CAL-120 [21]) [%] | normalised response (CAL-148 [22]) [%] | normalised response (CAL-51 [23]) [%] | normalised response (CAL-85-1 [24]) [%] | normalised response (DU-4475 [25]) [%] | normalised response (HCC1143 [26]) [%] | normalised response (HCC1599 [27]) [%] | normalised response (HCC1937 [28]) [%] | normalised response (HDQ-P1 [29]) [%] | normalised response (Hs578T [30]) [%] | normalised response (MCF-10A) [%] | normalised response (MDA-MB-231 [31]) [%] | normalised response (MDA-MB-436 [32]) [%] | normalised response (MDA-MB-453 [33]) [%] | normalised response (MDA-MB-468 [34]) [%] | normalised response (MFM-223 [35]) [%] | normalised response (SK-BR-3 [36]) [%] |
| --- | --- | --- | --- | --- | --- | --- | --- | --- | --- | --- | --- | --- | --- | --- | --- | --- | --- | --- | --- | --- | --- | --- | --- | --- | --- | --- | --- | --- | --- | --- | --- | --- | --- | --- | --- | --- | --- |
| Cc1cc(Nc2cc(CN3CCOCC3)c3nc(C)c(Cc4ccc(Cl)cc4F)n3n2)n[nH]1 (1 nM) | 92.4 | 97.8 | 86.9 | 95.6 | 98 | 82.1 | 119 | 88.6 | 110 | 85.9 | 65.2 | 107 | 89.5 | 87.7 | 85.3 | 103 | 93.8 | 104 |  |  |  |  |  |  |  |  |  |  |  |  |  |  |  |  |  |  |  |
| COC(=O)c1ccc2c(c1)NC(=O)/C2=C(\Nc1ccc(N(C)C(=O)CN2CCN(C)CC2)cc1)c1ccccc1 [BIBF 1120] (1 nM) | 124 | 119 | 83.6 | 105 | 99.7 | 94.3 | 112 | 95.7 | 87.2 | 117 | 114 | 109 | 129 | 114 | 101 | 108 | 91.8 | 93.3 |  |  |  |  |  |  |  |  |  |  |  |  |  |  |  |  |  |  |  |
| C=C1C[C@@H]2[C@H](CC[C@]3(C)C(=O)CC[C@@H]23)[C@@]2(C)C=CC(=O)C=C12 [Exemestane] (1 nM) | 81.5 | 114 | 86.5 | 89.2 | 95.2 | 88.2 | 90.9 | 85.9 | 84.5 | 102 | 100 | 112 | 93.5 | 95.2 | 99.2 | 117 | 88.7 | 91.5 | 97.6 | 91.6 | 101 | 98.6 | 88.6 | 97.2 | 106 | 102 | 112 | 93.6 | 101 | 106 | 112 | 105 | 134 | 108 | 101 | 108 | 107 |
| Cc1ccc(NC(=O)c2ccc(CN3CCN(C)CC3)cc2)cc1Nc1nc(-c2cccnc2)cs1 [Masitinib] (1 nM) | 102 | 119 | 79.2 | 86.5 | 100 | 92.5 | 102 | 89.9 | 92.2 | 72.1 | 84.1 | 109 | 93.4 | 91.7 | 98.4 | 110 | 96.8 | 93.9 | 96.4 | 103 | 95.8 | 101 | 98.9 | 98.7 | 103 | 100 | 119 | 105 | 100 | 100 | 96.6 | 97.9 | 100 | 110 | 114 | 102 | 104 |
| c1ccc2c(CCNc3ccc(Nc4ccncc4)cc3)c[nH]c2c1 [Serdemetan] (1 nM) | 99.8 | 106 | 79 | 107 | 110 | 85.3 | 95.2 | 86.3 | 92.4 | 95.9 | 99.9 | 97.5 | 98.5 | 104 | 99.2 | 105 | 82.8 | 95 | 93.8 | 102 | 96.8 | 91 | 114 | 101 | 95.7 | 98.5 | 115 | 93.9 | 96.7 | 99.2 | 86.1 | 97.1 | 86.4 | 112 | 98.8 | 98.8 | 104 |
